Here are results for one substance from US20110123466A1, “PHARMACEUTICAL AND/OR COSMETIC COMPOSITION CONTAINING AN ACTIVE PRINCIPLE ACTIVATOR OF CYTOCHROME C” (SOCIETE D'EXTRACTION DES PRINCIPES ACTIFS S.A (ISP …, priority 2007, published 2011).

Ends that are not written are not given here.

Assay [1] concerns cytochrome C. The experiment in a line: Expression of cytochrome C by immunotransfer (Western Blot). In kind it is cell-based. Conditions: human dermal fibroblasts; 1% solution of a 50-ppm mother-solution; 72 hours. Here is the method: The aim of this study was to determine the effect of the SEQ ID No. 2 peptide on the expression of cytochrome C. For this, the quantity of cytochrome C was evaluated by the immunotransfer (or Western Blot) technique.
Protocol: Human dermal fibroblasts were treated with a 1% solution of a 50-ppm SEQ ID No. 2 peptide mother-solution for 72 hours. The cells were then lysed and homogenized by sonication, then centrifuged for 10 minutes at 1000 g. The samples, standardized for their protein concentration (BCA measurement kit, Pierce) were subjected to electrophoresis on 4-12% bis-tris gel (Invitrogen). After electro-transfer, the membranes were incubated overnight with an anticytochrome C antibody, diluted to 1/500 (mouse monoclonal anti-cytochrome C, Tebu). A secondary antibody, coupled to the peroxidase and diluted to 1/5000 was then used (peroxidase conjugated F(ab′)2, goat antimouse, Immunotech). The chemiluminescent signal was then quantified using the Supersignal West Femto Trial kit and read in a reading chamber (MultiImage Light Cabinet, Immunotech Corporation).

In assay [2] the test system is dermal fibroblast mitochondria. The experiment in a line: Mitochondrial membrane potential, JC-1 marking, with or without H2O2 or UVB stress. The format is cell-based, human. The method, then:
The aim of this study was to determine the protective effect of the SEQ ID No. 2 peptide with respect to dermal fibroblast mitochondria subjected to an oxidative stress caused by oxygenated water (H2O2) or UVB irradiation. A marker for the membrane potential of mitochondria (JC-1) was used for this. JC-1 is a marker that emits different fluorescences depending on the level of polarization of the mitochondrial membrane.
Protocol: Human dermal fibroblasts were treated with a 1% solution of a 50-ppm SEQ ID No. 2 peptide mother-solution for 96 hours and then subjected to an oxidative stress caused by 2 mM of H2O2 for 30 min. or to UVB irradiation at 50 mJ/cm^2. Controls not treated with the peptide or H2O2 or not irradiated were performed under the same conditions. At the end of the experiment, the cells were washed, fixed, and subjected to marking with a 0.2 μg/ml solution of JC-1 (Molecular Probes®) in order to disclose the membrane potential of the mitochondria.

Assay [3] concerns cytochrome oxidase. The experiment in a line: Enzymatic activity of cytochrome oxidase (Cytocox 1 kit) in treated fibroblasts. The format is cell-based. The note with it: normal human fibroblasts, 1% solution of a 50-ppm solution, compared with untreated cells. Here is the method: The aim of this study was to determine the effect of the SEQ ID No. 2 peptide on mitochondrial activity. For this, the total enzymatic (mitochondrial) activity of cytochrome oxidase was measured.
Protocol: Normal human fibroblasts were treated with a 1% solution of a 50-ppm solution containing the SEQ ID No. 2 peptide, representative of the peptide family according to the invention, for 3 hours and 24 hours. The cells were collected, rinsed, and then lysed by sonication. A first centrifuging was performed to eliminate the principal cellular debris, and the supernatant was then centrifuged again at 10,000 g for 10 minutes. The enzymatic activity was measured in the supernatant and/or in the second residue, by a biochemical method using the Cytocox 1 kit (Sigma-Aldrich), then standardized for protein content (measured with the BCA kit, Pierce).

Assay [4] deals with Dermal fibroblasts. The experiment in a line: Synthesis of intracellular ATP (ATP Bioluminescence Assay Kit HS II). In kind it is cell-based. The note with it: 1% solution of a 50 ppm peptide solution, compared to untreated cells. The method, then:
Protocol: This study was conducted using an ATP Bioluminescence Assay Kit HS II (Roche Applied Science). Dermal fibroblasts were treated with a 1% solution of a 50 ppm solution containing the SEQ ID No. 2 peptide, representative of the peptide family according to the invention, for a period of 1 to 3 hours. At the end of incubation, the tubes were rinsed with 2 ml of cold PBS before adding 250 μl of a lysis buffer provided in the kit. The cells of each tubes were then scraped up and collected in 14-ml tubes. Each tube was rinsed with 2×500 μl of cold PBS and the whole was collected again in the respective tubes. […] The ATP measurement was performed on these samples: 50 μl of this dilution was placed in a Luma cuvette and […]. After 10 seconds, the luminescence reading was begun. The values were standardized relative to the quantity of proteins for each sample. The measurements were made using the Biocounter M2010A Luma®/3M equipment.

Regarding “Tyr-Leu-Lys-Lys-Ala-NH2 (YLKKA-NH2) [SEQ ID No. 2]”, in assay [1], the “expression of cytochrome C” value is given as “clear increase”. Besides, in assay [2] (peptide for 96 hours, then 2 mM H2O2 for 30 min or UVB 50 mJ/cm^2), the “mitochondrial membrane potential (JC-1 red fluorescence) under stress” value is on record as “more marked red fluorescence”. In addition, the “mitochondrial membrane potential (JC-1 red fluorescence)” value in assay [2] (unstressed human dermal fibroblasts, 1% solution of a 50-ppm mother-solution, 96 hours) is listed as “elevated membrane potential, greater than in the control cells”. Further, the “increase in enzymatic activity of cytochrome oxidase” value came to 750% in assay [3] (24 hours after application) and 150% in assay [3] (after 3 hours). Besides, the results for the “increase in the amount of intracellular ATP” value in assay [4] (after 3 hours) and in assay [4] (after one hour) were 27% and 41%, respectively.
